Test results as given in PMC10466331, “Fluorescence polarisation activity-based protein profiling for the identification of deoxynojirimycin-type inhibitors selective for lysosomal retaining alpha- and beta-glucosidases” (Chemical Science, 2023).
Read-outs that look alike come from different tables or passages of the source.

Assays:
[1] = biological target: T1, human recombinant lysosomal α-glucosidase GAA (Myozyme) (Homo sapiens, UniProt P10253); assay: fluorogenic substrate (4MU-α-D-glucopyranoside) assay on rhGAA; format: biochemical
T1 construct: purchased Genzyme

[2] = biological target: T2, ER α-glucosidase GANAB (from Pompe disease Fibroblast lysates) (Homo sapiens, UniProt Q14697); assay: fluorogenic substrate (4MU-α-D-glucopyranoside) assay on GANAB in Pompe fibroblast homogenates; format: biochemical;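 note: inhibitor preincubated 30 min at 37 °C with homogenate, then GANAB activity read after 2 h with 3.0 mM fluorogenic substrate in McIlvaine buffer containing 0.1% BSA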
T2 construct: Cellular homogenates of Pompe fibroblasts (1 mg mL^−1) were used as protein source for GANAB; endogenous in cells; host or cells: Pompe disease fibroblasts (homogenate)
T2 sequence (Q14697 29-944): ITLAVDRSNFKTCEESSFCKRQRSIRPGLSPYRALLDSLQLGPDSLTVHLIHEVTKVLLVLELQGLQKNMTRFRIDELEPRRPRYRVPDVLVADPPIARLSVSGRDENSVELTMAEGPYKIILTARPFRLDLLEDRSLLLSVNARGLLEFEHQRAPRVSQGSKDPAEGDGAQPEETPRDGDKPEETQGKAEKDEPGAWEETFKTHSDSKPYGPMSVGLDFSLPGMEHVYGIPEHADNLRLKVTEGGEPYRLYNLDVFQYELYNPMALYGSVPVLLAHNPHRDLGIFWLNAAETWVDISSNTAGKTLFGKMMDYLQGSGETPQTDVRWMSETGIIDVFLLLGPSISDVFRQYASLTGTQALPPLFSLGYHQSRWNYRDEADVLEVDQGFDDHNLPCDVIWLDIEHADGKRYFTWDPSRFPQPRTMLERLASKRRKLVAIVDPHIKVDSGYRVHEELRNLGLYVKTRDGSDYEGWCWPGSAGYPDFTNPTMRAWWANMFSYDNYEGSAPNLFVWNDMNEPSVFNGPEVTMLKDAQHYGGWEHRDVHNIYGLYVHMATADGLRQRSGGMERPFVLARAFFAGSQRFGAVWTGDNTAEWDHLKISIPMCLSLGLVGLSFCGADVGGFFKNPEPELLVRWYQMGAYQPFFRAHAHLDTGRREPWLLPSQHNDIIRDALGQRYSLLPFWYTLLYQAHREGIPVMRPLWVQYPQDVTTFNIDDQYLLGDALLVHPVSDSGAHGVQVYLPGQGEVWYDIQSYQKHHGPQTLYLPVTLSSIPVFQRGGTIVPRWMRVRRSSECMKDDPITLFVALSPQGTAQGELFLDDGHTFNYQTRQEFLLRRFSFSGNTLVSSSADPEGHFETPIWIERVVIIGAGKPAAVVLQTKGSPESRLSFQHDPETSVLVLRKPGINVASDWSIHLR
T2 sequence (P14314 15-528 partner): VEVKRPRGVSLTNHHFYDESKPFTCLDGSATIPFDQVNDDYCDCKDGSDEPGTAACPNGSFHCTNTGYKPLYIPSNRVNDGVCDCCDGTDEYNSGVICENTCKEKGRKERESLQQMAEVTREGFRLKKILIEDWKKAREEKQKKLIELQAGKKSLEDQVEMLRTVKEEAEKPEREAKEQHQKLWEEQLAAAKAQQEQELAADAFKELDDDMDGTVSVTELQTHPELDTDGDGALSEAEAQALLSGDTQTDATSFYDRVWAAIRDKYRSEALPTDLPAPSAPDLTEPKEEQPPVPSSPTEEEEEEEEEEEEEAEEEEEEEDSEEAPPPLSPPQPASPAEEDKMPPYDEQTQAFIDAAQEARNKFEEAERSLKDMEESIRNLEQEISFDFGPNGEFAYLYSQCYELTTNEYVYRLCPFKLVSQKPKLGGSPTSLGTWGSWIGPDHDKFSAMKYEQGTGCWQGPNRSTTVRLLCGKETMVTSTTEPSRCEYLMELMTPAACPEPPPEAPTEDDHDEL

[3] = biological target: T3, recombinant human GAA (rhGAA, Myozyme) (Homo sapiens, UniProt P10253); assay: competitive FluoPol-ABPP assay on rhGAA with TAMRA-ABP II; format: biochemical; details: library screen, 5 μM inhibitor, 25 nM ABP II;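 note: fluorescence polarization read at 540 nm excitation and 590 nm emission, background-corrected, normalized to uninhibited probe labelling as 100% and excess cyclosulfate as 0%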
T3 construct: purchased Genzyme

[4] = tested on: retaining β-glucosidases GBA1, GBA2 and GBA3; assay: SDS-gel activity-based protein profiling (in-gel fluorescence labelling); format: biochemical; details: 500 nM probe, 30 min 37 °C
Experimental: Lysates of HEK293T GBA2 overexpressing and HEK293T GBA3 overexpressing cells[24] were prepared in 150 mM McIlvain buffer (pH = 5.0), supplemented with 0.25 M sucrose, 0.2% sodium taurocholate (w/v) and 0.1% Triton X-100 (v/v). The lysates were homogenized using sonication, after which the total protein concentration was determined via Pierce BCA Protein assay (ThermoFisher) using BSA (ThermoFisher) for standards. Samples (Vf = 20 μL) of an 1 : 1 mixture of GBA2 : GBA3 lysates containing 40 μg protein were incubated for 30 min at 37 °C with 500 nM ABP. Protein content was denatured using Laemmli Buffer (4×) at 98 °C for 5 min. Reactions were resolved by 7.5% SDS-PAGE electrophoresis and wet slabs were scanned for fluorescence (Typhoon FLA 9500, GE Healthcare).

[5] = biological target: T4, recombinant human GBA1 (rhGBA1, Cerezyme) (Homo sapiens, UniProt P04062, R534H); assay: competitive FluoPol-ABPP assay on rhGBA1 with TAMRA-ABP I; format: biochemical; details: library screen, 5 μM inhibitor, 5 nM ABP I
T4 construct: purchased Genzyme
T4 sequence (P04062 40-536 R534H): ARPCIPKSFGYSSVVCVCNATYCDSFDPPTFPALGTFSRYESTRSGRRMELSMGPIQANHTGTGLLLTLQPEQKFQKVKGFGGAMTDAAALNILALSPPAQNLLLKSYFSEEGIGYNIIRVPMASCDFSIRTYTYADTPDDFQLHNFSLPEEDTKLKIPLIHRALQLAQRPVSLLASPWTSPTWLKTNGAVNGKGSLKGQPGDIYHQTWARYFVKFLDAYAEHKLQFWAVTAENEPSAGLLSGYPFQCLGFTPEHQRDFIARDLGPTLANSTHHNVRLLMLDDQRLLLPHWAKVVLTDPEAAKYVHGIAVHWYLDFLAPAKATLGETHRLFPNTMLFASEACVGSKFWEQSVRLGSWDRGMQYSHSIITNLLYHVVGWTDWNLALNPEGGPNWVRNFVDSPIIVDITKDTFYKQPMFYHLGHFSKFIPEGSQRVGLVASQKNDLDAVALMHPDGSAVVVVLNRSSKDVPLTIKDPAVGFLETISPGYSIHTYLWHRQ

rhGBA1 (Cerezyme) = details: read-out: IC50 GBA1; cited from earlier work
[6] = tested on: GBA2 (GBA2-overexpressing HEK293T lysate); details: cited from earlier work
[7] = tested on: glucosylceramide synthase (GCS) (RAW 264.7 cells); details: in situ; cited from earlier work
[8] = Table S2, 4-MU alpha glucoside substrate, read-out: IC50 on rhGAA
[9] = Table S2, 4-MU alpha glucoside substrate, read-out: IC50 on GANAB
[10] = 4MU-α-glucoside substrate, pH 7.0, mean ± SD, 3 technical replicates, read-out: IC50 GANAB

Row | SMILES | IC50 [1, 8] [nM] | IC50 [2, 9] [nM] | GAA FP% (residual FP-signal) [3] [%] | further results
1 | OC[C@@H]1[C@@H](O)[C@H](O)[C@@H](O)CN1CCCCCOCc1ccc(-c2ccccc2)cc1 [#ID 343] | 43 | 250 | 0.6 | 
2 | C[C@@H](OCCCCCN1C[C@H](O)[C@@H](O)[C@H](O)[C@H]1CO)c1ccc(-c2ccccc2)cc1 [#ID 345] | 58 | 370 | 1.5 | 
3 | COC(=O)c1cc(C(=O)NCCCCc2cn(C[C@@H]3[C@@H](O)[C@H](O)[C@@H](O)[C@@H]4O[C@H]34)nn2)ccc1-c1c2ccc(=[N+](C)C)cc-2oc2cc(N(C)C)ccc12 [ABP I] |  |  |  | β-glucosidase labelling selectivity of the probe [4]: modifies exclusively GBA1
4 | O[C@@H]1[C@@H](O)[C@@H](CCCCCCOCC23CC4CC(CC(C4)C2)C3)NC[C@H]1O [Compound 7] |  |  |  | inhibition at 5 µM [5]: > 90%
5 | OC[C@H]1N[C@H](CCCCCOCC23CC4CC(CC(C4)C2)C3)[C@H](O)[C@@H](O)[C@@H]1O [Compound 14] | 4000 |  | 34 | IC50 (rhGBA1 (Cerezyme)): 70 nM; IC50 [6]: 300 nM; IC50 [2, 10]: > 100000 nM; IC50 [7]: 50000 nM
6 | OC[C@@H]1[C@@H](O)[C@H](O)[C@@H](O)CN1CCCCCOCc1cc2ccccc2c2ccccc12 [Compound 15] | 110 | 2000 | 25 | IC50 (rhGBA1 (Cerezyme)): 10000 nM; IC50 [6]: 100 nM; IC50 [2, 10]: 1960 ± 40 nM; IC50 [7]: > 20000 nM

Now from value to compound, other results behind:

Row | IC50 [1, 8] [nM] | IC50 [2, 9] [nM] | GAA FP% (residual FP-signal) [3] [%] | SMILES | further results
7 | 54 | 520 | 1.8 | OC[C@@H]1[C@@H](O)[C@H](O)[C@@H](O)CN1CCCCCOCc1cccc(-c2ccccc2)c1 [#ID 341] | 
8 | 42 | 400 | 0.4 | C[C@H](OCCCCCN1C[C@H](O)[C@@H](O)[C@H](O)[C@H]1CO)c1ccc(-c2ccccc2)cc1 [#ID 347] | 
9 | 23 | 610 | 3.1 | OC[C@@H]1[C@@H](O)[C@H](O)[C@@H](O)CN1CCCCCOCc1ccc(-c2ccc(Br)cc2)cc1 [#ID 348] | 
10 | 28 | 4400 | 3.0 | OC[C@@H]1[C@@H](O)[C@H](O)[C@@H](O)CN1CCCC(F)(F)COCc1ccc(-c2ccccc2)cc1 [#ID 349] | 
11 | 1200 | 8300 |  | OC[C@@H]1[C@@H](O)[C@H](O)[C@@H](O)CN1CCCCCOCc1ccc(-c2ccccc2)cc1 [Compound 6] | IC50 ([1]; 4MU-α-glucoside substrate, pH 4.0, mean ± SD, 3 technical replicates, read-out: IC50 GAA): 1180 ± 310 nM; IC50 [2, 10]: 8290 ± 170 nM; GAA FP% (residual FP-signal) ([3]; listed as 62): 3.8%
12 | 2460 |  | 29 | OC[C@H]1N[C@H](CCCCCCOCC23CC4CC(CC(C4)C2)C3)[C@H](O)[C@@H](O)[C@@H]1O [Compound 8] | inhibition at 5 µM [5]: > 90%
